What was measured:
[1] = Highest frequency of moderate liver toxicity observed during clinical trials, expressed as a percentage. [column '% BIOL' in source]; conditions: human
[2] = Highest frequency of acute liver toxicity observed during clinical trials, expressed as a percentage. [column '% AIGUE' in source]; conditions: human
[3] = Presence of at least one case with successful reintroduction. [column 'REINT' in source]; conditions: human
[4] = Comments (NB not yet translated). [column 'COMMENTAIRES' in source]; conditions: human
[5] = Times to onset, minimal and maximal, observed in the indexed observations. [column 'DELAI' in source]; conditions: human
[6] = Proposed mechanism(s) of liver damage. [column 'MEC' in source]; conditions: human
[7] = human, serum
[8] = human, serum; remark: listed apart in the source
[9] = human
[10] = human; remark: listed apart in the source
[11] = human; remark: listed apart in the source
[12] = human, serum, 4383 h
[13] = human; remark: listed apart in the source
[14] = human; remark: listed apart in the source
[15] = human; remark: listed apart in the source
[16] = human; remark: listed apart in the source
[17] = human; remark: listed apart in the source
[18] = human; remark: listed apart in the source
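Throughout, for Hepatotoxicity (association with vascular disease): count of indexed literature references reporting vascular liver injury in humans, e.g. peliosis hepatitis, hepatic veno-occlusive disease or Budd-Chiari syndrome.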
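Throughout, for Hepatotoxicity (benign tumour): value is a count of indexed literature references citing a benign tumour confirmed by histopathology.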
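Throughout, for Hepatotoxicity (choleostasis): human cholestatic liver injury, shown by histopathology or by peak ALT or AST elevation over alkaline phosphatase ratio below 2, value counts indexed literature reports.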
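Throughout, for Hepatotoxicity (chronic liver disease): chronic liver injury confirmed by histopathology or persistently raised serum aminotransferase activity beyond 6 months, value given as the count of indexed literature references.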
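Throughout, for Hepatotoxicity (cirrhosis): value is a count of indexed literature references reporting cirrhosis confirmed by histopathology.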
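Throughout, for Hepatotoxicity (cytolytic): human cytolytic liver injury, shown by histopathology or by a ratio above 5 of peak ALT or AST elevation to alkaline phosphatase elevation, value counts indexed references.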
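Throughout, for Hepatotoxicity (granulomatous hepatitis): value is a count of indexed literature references reporting granulomatous liver disease confirmed by histopathology.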
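Throughout, for Hepatotoxicity (malignant tumour): malignant tumour confirmed by histopathology, value gives the count of indexed literature references reporting it.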
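Throughout, for Hepatotoxicity (severe hepatitis): human clinical data: severe hepatitis, meaning potentially life-threatening liver failure or clinically observed cases, the value counts how many indexed literature references report it.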
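Throughout, for Hepatotoxicity (steatosis): steatosis confirmed by histopathology, value is the count of indexed references.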

Structure (SMILES) | Hepatotoxicity (moderate) [1] [%] | Hepatotoxicity (acute) [2] [%] | Hepatotoxicity (successful reintroduction) [3] | Hepatotoxicity (comment) [4] | Hepatotoxicity (time to onset) [5] | Hepatotoxicity (mechanism) [6] | Hepatotoxicity (moderate) [7] | Hepatotoxicity (acute) [8] | Hepatotoxicity (cytolytic) [9] | Hepatotoxicity (choleostasis) [10] | Hepatotoxicity (severe hepatitis) [11] | Hepatotoxicity (chronic liver disease) [12] | Hepatotoxicity (cirrhosis) [13] | Hepatotoxicity (granulomatous hepatitis) [14] | Hepatotoxicity (association with vascular disease) [15] | Hepatotoxicity (steatosis) [16] | Hepatotoxicity (malignant tumour) [17] | Hepatotoxicity (benign tumour) [18] | other results
CCC(c1ccccc1)c1c(O)c2ccccc2oc1=O (configuration not stated) [PHENPROCOUMON] | 37 | 0 | yes | RC/ACENOCOUMAROL/WARFARINE CHOLANGITE AC_ANTI-ML/-N | 6 days - 7 years | Allergic | 2 | 18 | 14 | 7 | 4 | 1 | 1 | 1 | 0 | 0 | 0 | 0 | 
Cc1ncc([N+](=O)[O-])n1CC(O)CCl (configuration not stated) [ORNIDAZOLE] | 0 | 0 | yes | AC_ANTI-ML/-N | 3 days - 6 months | Allergic | 1 | 2 | 2 | 0 | 0 | 1 | 0 | 0 | 0 | 0 | 0 | 0 | 
c1ccc2[nH]c(-c3cscn3)nc2c1 [THIABENDAZOLE] | 36 | 0 | yes | CHOLESTASE_PROLONGEE DUCTOPENIE #CBP | 2 weeks - 1.5 years | Allergic | 2 | 13 | 2 | 13 | 0 | 0 | 2 | 0 | 0 | 0 | 0 | 0 | 
CCn1cc(C(=O)O)c(=O)c2cc(F)c(N3CCNCC3)cc21 [NORFLOXACIN] |  |  | yes | AC_ANTI-N | 1 day - 10 days |  | 15 | 9 |  |  |  | 0 | 0 |  | 0 | 0 | 0 | 0 | Hepatotoxicity (moderate) ([1]; Liver): 7.7%; Hepatotoxicity (acute) ([2]; Liver): 0%; Hepatotoxicity (mechanism) ([6]; Liver): Allergic; Hepatotoxicity (cytolytic) ([9]; Liver): 3; Hepatotoxicity (choleostasis) ([10]; Liver): 6; Hepatotoxicity (severe hepatitis) ([11]; Liver): 0; Hepatotoxicity (granulomatous hepatitis) ([14]; Liver): 0

From ChEMBL document CHEMBL3137667, “[Drug-induced liver injury; fourteenth updated edition of the bibliographic database of liver injuries and related drugs]” (Gastroenterol Clin Biol, 2004)
